{"source": "patent US7407969B2", "about": "“Respiratory syncytial virus replication inhibitors” (Janssen Pharmaceutica, N.V., priority 1999, dated 2008)", "key": {"[1]": {"test_system": "Respiratory Syncytial Virus", "test": "microbe, parasite or virus in culture", "type": "cell-based", "settings": "for SI: selectivity index = CC50 divided by IC50", "protocol": "(§1) The percent protection against cytopathology caused by viruses (antiviral activity or IC50) achieved by tested compounds and their cytotoxicity (CC50) were both calculated from dose-response curves.\n(§2) Automated tetrazolium-based […] assays were used for determination of IC50 and CC50 of test compounds. Flat-bottom, 96-well plastic microtiter trays were filled with 180 μl of Eagle's Basal Medium, supplemented with 5% FCS (0% for FLU) and 20 mM Herpes buffer. Subsequently, stock solutions (7.8×final test concentration) of compounds were added in 45 μl volumes to a series of triplicate wells so as to allow simultaneous evaluation of their effects on virus- and mock-infected cells. Five five-fold dilutions were made directly in the microtiter trays using a robot system. Untreated virus controls, and HeLa cell controls were included in each test. Approximately 100 TCID50 Respiratory Syncytial Virus was added to two of the three rows in a volume of 50 μl. The same volume of medium was added to the third row to measure the cytotoxicity of the compounds at the same concentrations as those used to measure the antiviral activity. After two hours of incubation, a suspension (4×10^5 cells/ml) of HeLa cells was added to all wells in a volume of 50 μl. The cultures were incubated at 37° C. in a 5% CO2 atmosphere. Seven days after infection the cytotoxicity and the antiviral activity was examined spectrophotometrically. To each well of the microtiter tray, 25 μl of a solution of MIT (3-(4,5-dimethylthiazol-2-yl)-2,5-diphenyltetrazolium bromide) was added. The trays were further incubated at 37° C. for 2 hours, after which the medium was removed from each cup. Solubilization of the formazan crystals was achieved by adding 100 μl 2-propanol. Complete dissolution of the formazan crystals were obtained after the trays have been placed on a plate shaker for 10 min. Finally, the absorbances were read in an eight-channel computer-controlled photometer (Multiskan MCC, Flow Laboratories) at two wavelengths (540 and 690 nm). The absorbance measured at 690 nm was automatically subtracted from the absorbance at 540 nm, so as to eliminate the effects of non-specific absorption."}, "[2]": {"test": "Cytotoxicity (CC50) in mock-infected HeLa cells, tetrazolium (MTT) colorimetric assay", "type": "cell-based", "settings": "human", "protocol": "as §1\nas §2, with “Complete dissolution of the formazan crystals were obtained after the trays have been placed on a plate shaker for 10 min.” left out"}, "[3]": {"settings": "human respiratory syncytial virus, HeLa, 168 h"}}, "note": "Like-named read-outs stand apart in the source and are kept apart here.", "data": [{"compound": "CCOC(c1cccc2cccnc12)n1c(NC2CCN(C(CN)C(C)C)CC2)nc2ccccc21", "note": "(racemic)", "values": [{"measurement": "melting point", "result": 202, "unit": "°C"}]}, {"compound": "CCOCCOC(c1cccc2cccnc12)n1c(NC2CCN(CC(N)C(C)C)CC2)nc2ccccc21", "note": "(racemic) [Compound 31, (±)-N-[1-(2-amino-3-methylbutyl)-4-piperidinyl]-1-[(2-ethoxyethoxy)-8-quinolinyl-methyl]-1H-benzimidazol-2-amine]", "values": [{"measurement": "IC50", "setting": "[1]; [3]", "result": 0.8, "unit": "nM"}, {"measurement": "SI", "setting": "[1]", "result": 15849}, {"measurement": "CC50 at 7 days", "setting": "[2]", "result": 12700, "unit": "nM"}]}, {"compound": "NCCN1CCC(Nc2nc3ccccc3n2Cc2ccnc3ccccc23)CC1", "values": [{"measurement": "melting point", "result": 196, "unit": "°C"}]}, {"compound": "CC(C)C(N)CN1CCC(Nc2nc3ccccc3n2Cc2ccc3ccccc3n2)CC1", "note": "(racemic) [Compound 6, (±)-N-[1-(2-amino-3-methylbutyl)-4-piperidinyl]-1-(2-quinolinylmethyl)-1H-benzimidazol-2-amine]", "values": [{"measurement": "IC50", "setting": "[1]; human respiratory syncytial virus, 168 h, antiviral activity against Respiratory Syncytial Virus, HeLa cells, 7 days after infection, MTT, read-out: IC50", "result": 12.6, "unit": "nM"}, {"measurement": "SI", "setting": "[1]", "result": 794}, {"measurement": "CC50 at 7 days", "setting": "[2]", "result": 10000, "unit": "nM"}, {"measurement": "melting point", "result": 135, "unit": "°C"}]}, {"compound": "CC(C)C(N)CN1CCC(Nc2nc3ccccc3n2CC2CCc3ccccc3N2)CC1.Cl.Cl.Cl.Cl.O", "note": "(racemic) (hydrate or solvate)", "values": [{"measurement": "melting point", "result": 230, "unit": "°C"}]}, {"compound": "(±)-N-[1-(2-amino-3-methylbutyl)-4-piperidinyl]-3-(quinolinylmethyl)-3H-imidazo[4,5-b]pyridin-2-amine [Compound 42]", "values": [{"measurement": "IC50", "setting": "[1]; antiviral activity against Respiratory Syncytial Virus, HeLa cells, 7 days after infection, MTT, read-out: IC50", "result": 0.4, "unit": "nM"}, {"measurement": "SI", "setting": "[1]", "result": ">25119"}]}, {"compound": "CC(C)C(N)CN1CCC(Nc2nc3ccccc3n2C2CCCc3ccc(Br)nc32)CC1.Cl.Cl.Cl.O.O.O", "note": "(racemic) [Compound 56, (±)-N-[1-(2-amino-3-methylbutyl)-4-piperidinyl]-1-(2-bromo-5,6,7,8-tetrahydro-8-quinolinyl)-1H-benzimidazol-2-amine trihydrochloride trihydrate]", "values": [{"measurement": "IC50", "setting": "[1]; [3]", "result": 1.6, "unit": "nM"}, {"measurement": "SI", "setting": "[1]", "result": 7943}, {"measurement": "CC50 at 7 days", "setting": "[2]; cytotoxicity in mock-infected HeLa cells, 7 days, MTT, read-out: CC50", "result": 12700, "unit": "nM"}]}]}
